What was measured:
Test in all cases: relative viability (nuclei count vs DMSO), 5 days (fraction); higher = more cells survive
IPA-3 + AZD7762 = compound: C1=CC=C2C(=C1)C=CC(=C2SSC3=C(C=CC4=CC=CC=C43)O)O [IPA-3] + NC(=O)Nc1cc(-c2cccc(F)c2)sc1C(=O)N[C@H]1CCCNC1 [AZD7762] (partner 0.2 µM)
How it was run: (§1)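 For relative viability, nuclei counts in treated wells were divided by those in vehicle wells. Lung cancer cell lines had been pin-tool dosed in 1536-well plates the day after seeding and cultured for 5 days, then fixed and stained in one step (final 0.05% Triton X-100, 1% formaldehyde, 1 ug/ml Hoechst) and imaged at 4×. Doses were one drug alone or a fixed anchor-drug dose plus five library-drug doses (not always all listed) in √10 steps, and values are duplicate-plate medians.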

IPA-3 + Lapatinib = compound: C1=CC=C2C(=C1)C=CC(=C2SSC3=C(C=CC4=CC=CC=C43)O)O [IPA-3] + CS(=O)(=O)CCNCc1ccc(-c2ccc3ncnc(Nc4ccc(OCc5cccc(F)c5)c(Cl)c4)c3c2)o1 [Lapatinib] (partner 2 µM)
How it was run: as §1

RAF265 + Olaparib = compound: Cn1c(Nc2ccc(C(F)(F)F)cc2)nc2cc(Oc3ccnc(-c4ncc(C(F)(F)F)[nH]4)c3)ccc21 [RAF265] + O=C(c1cc(Cc2n[nH]c(=O)c3ccccc23)ccc1F)N1CCN(C(=O)C2CC2)CC1 [Olaparib] (partner 8 µM)
How it was run: as §1

RAF265 + Trametinib = compound: Cn1c(Nc2ccc(C(F)(F)F)cc2)nc2cc(Oc3ccnc(-c4ncc(C(F)(F)F)[nH]4)c3)ccc21 [RAF265] + CC(=O)Nc1cccc(-n2c(=O)n(C3CC3)c(=O)c3c(Nc4ccc(I)cc4F)n(C)c(=O)c(C)c32)c1 [Trametinib] (partner 0.02 µM)
How it was run: as §1

Row | Cell Line | relative viability (IPA-3 + AZD7762; first compound 0.2 µM) | relative viability (IPA-3 + AZD7762; first compound 0.6325 µM) | relative viability (IPA-3 + AZD7762; first compound 2 µM) | relative viability (IPA-3 + AZD7762; first compound 6.325 µM) | relative viability (IPA-3 + AZD7762; first compound 20 µM) | relative viability (IPA-3 + Lapatinib; first compound 0.2 µM) | relative viability (IPA-3 + Lapatinib; first compound 0.6325 µM) | relative viability (IPA-3 + Lapatinib; first compound 2 µM) | relative viability (IPA-3 + Lapatinib; first compound 6.325 µM) | relative viability (IPA-3 + Lapatinib; first compound 20 µM) | relative viability (RAF265 + Olaparib; first compound 0.01 µM) | relative viability (RAF265 + Olaparib; first compound 0.03162 µM) | relative viability (RAF265 + Olaparib; first compound 0.1 µM) | relative viability (RAF265 + Olaparib; first compound 0.3162 µM) | relative viability (RAF265 + Olaparib; first compound 1 µM) | relative viability (RAF265 + Trametinib; first compound 0.01 µM) | relative viability (RAF265 + Trametinib; first compound 0.03162 µM) | relative viability (RAF265 + Trametinib; first compound 0.1 µM) | relative viability (RAF265 + Trametinib; first compound 0.3162 µM) | relative viability (RAF265 + Trametinib; first compound 1 µM)
1 | NCI-H23 | 0.207 | 0.274 | 0.261 | 0.32 | 0.363 | 1.16 | 1.04 | 1.24 | 1.09 | 0.735 | 0.363 | 0.24 | 0.294 | 0.271 | 0.186 | 0.404 | 0.262 | 0.239 | 0.239 | 0.17
2 | NCI-H322M | 0.503 | 0.6 | 0.616 | 0.808 | 0.786 | 0.566 | 0.66 | 0.596 | 0.566 | 0.613 | 0.878 | 0.689 | 0.632 | 0.53 | 0.344 | 0.496 | 0.421 | 0.486 | 0.507 | 0.409
3 | NCI-H358 | 0.618 | 0.566 | 0.5 | 0.508 | 0.48 | 0.532 | 0.47 | 0.445 | 0.51 | 0.413 | 0.749 | 0.489 | 0.403 | 0.286 | 0.16 | 0.152 | 0.115 | 0.116 | 0.127 | 0.129
4 | NCI-H460 | 0.756 | 0.704 | 0.632 | 0.7 | 0.634 |  | 0.807 | 1.1 | 0.889 | 1.19 | 0.444 | 0.426 | 0.491 | 0.411 | 0.28 | 0.238 | 0.23 | 0.133 | 0.156 | 0.0601
5 | NCI-H596 | 1.1 | 1.07 | 1.11 | 1.21 | 1.3 | 1.09 | 1.09 | 1.13 | 1.03 | 1.35 | 0.825 | 0.765 | 0.711 | 0.727 | 0.535 | 0.836 | 0.75 | 0.813 | 0.826 | 0.638
6 | NCI-H647 | 0.675 | 0.408 | 0.555 | 0.402 | 0.0953 | 1.71 | 1.02 | 0.876 | 0.335 | 0.0724 | 0.422 | 0.494 | 0.357 | 0.399 | 0.306 | 0.46 | 0.451 | 0.277 | 0.222 | 0.19
7 | NCI-H650 | 1.1 | 1.01 | 1.08 | 0.935 | 1.08 | 1.22 | 0.955 | 0.802 | 0.857 | 1.3 | 0.384 | 0.383 | 0.376 | 0.324 | 0.174 | 1.05 | 0.972 | 1.05 | 0.569 | 0.328
8 | NCI-H727 | 0.652 | 0.604 | 0.674 | 0.617 | 0.706 | 1.15 | 0.832 | 0.915 | 0.952 | 0.796 | 0.701 | 0.685 | 0.708 | 0.593 | 0.547 | 0.403 | 0.371 | 0.392 | 0.334 | 0.317
